Source: publication PMC11145868, “Protein target similarity is positive predictor of in vitro antipathogenic activity: a drug repurposing strategy for Plasmodium falciparum” (Journal of Cheminformatics, 2024)
Counter-ions that a name gives are not always drawn. Like-named read-outs stand apart in the source and are kept apart here.

Assays:
[1] = test system: HEK293T cells
[2] = test system: P. falciparum Dd2-HLH; experiment: microbe, parasite or virus in culture; type: cell-based, Plasmodium falciparum
[3] = test system: HepG2 cells
[4] = target: P. berghei-luciferase sporozoites; experiment: microbe, parasite or virus in culture; type: cell-based, Plasmodium berghei
[5] = in vitro; details: human
[6] = test system: P. falciparum Dd2-HLH; experiment: microbe, parasite or virus in culture; type: cell-based, Plasmodium falciparum; remark: listed apart in the source
[7] = test system: HEK293T cells; experiment: Mammalian cell cytotoxicity assay, HEK293T (CellTiter-Glo, 72 h); details: read-out: HEK CC50
[8] = Mammalian cell cytotoxicity assay, HepG2 (CellTiter-Glo, 72 h); details: human
[9] = P. falciparum blood-stage parasites, 72 hours in culture, read-out: Blood stage 72h EC50
[10] = liver-stage parasites, 48 hours in culture, read-out: Liver stage 48h EC50
[11] = Plasmodium falciparum, DD2, 72 h, read-out: Blood stage 72h EC50
[12] = Plasmodium berghei, HepG2, liver-stage parasites, 48 hours in culture, read-out: Liver stage 48h EC50
[13] = Plasmodium falciparum, DD2, 48 h, read-out: Blood stage 48h EC50
[14] = Plasmodium berghei, liver-stage parasites, 48 h in culture, read-out: Liver 48 h EC50
[15] = P. falciparum blood-stage parasites, 48 hours in culture, read-out: Blood stage 48h EC50

CCN(CC)CCN1C(=O)c2c(c3c4cccc(Cl)c4n([C@@H]4O[C@H](CO)[C@@H](OC)[C@H](O)[C@H]4O)c3c3[nH]c4c(Cl)cccc4c23)C1=O [Becatecarin]
CC50 [1]: 143 nM | EC50 [2, 9]: 194 nM | CC50 [3]: 158 nM | EC50 [4, 10]: 7160 nM

CC[C@@]1(O)C[C@H](O[C@H]2C[C@H](N(C)C)[C@H](O[C@H]3C[C@H](O)[C@H](O[C@H]4CCC(=O)[C@H](C)O4)[C@H](C)O3)[C@H](C)O2)c2c(cc3c(c2O)C(=O)c2c(O)cccc2C3=O)[C@H]1C(=O)OC [Aclarubicin]
EC50 [2, 11]: 302 nM | EC50 [4, 12]: 2230 nM | CC50 [5]: 166 nM | EC50 [6, 13]: 154 nM

O=C(CC1NCCCC1O)Cn1cnc2cc(Br)c(Cl)cc2c1=O (centres unmarked) [Halofuginone, reference compound]
EC50 [2, 11]: 1 nM | EC50 [4, 14]: 70 nM | CC50 at 72 h [5]: 88 nM | EC50 ([6]; Plasmodium falciparum, DD2, Hec50, 48 h, read-out: Blood stage 48 h EC50): 1 nM

Cc1cc(-c2cc(OC(=O)c3ccccc3)ccc2Cl)cc2nnc(Nc3ccc(OCCN4CCCC4)cc3)nc12 [TG-100801]
CC50 ([7]; HEK293T cytotoxicity): > 9950 nM | EC50 [2, 9]: 205 nM | EC50 [4, 10]: 1410 nM | EC50 [6, 15]: 68 nM

O=C1c2ccccc2C(=O)c2sc(-c3ccco3)nc21 [INO-5042]
CC50 [1]: 1330 nM | EC50 [2, 9]: 403 nM | CC50 [3]: 705 nM | EC50 [4, 10]: 2070 nM

CCc1ccc(OCc2ccccc2C(=O)Nc2ccc3nc(C)cc(N)c3c2)cc1 [JTC-801]
CC50 ([7]; HEK293T cytotoxicity): 1810 nM | EC50 [2, 9]: 635 nM | EC50 [4, 10]: 429 nM | EC50 [6, 15]: 123 nM

CO[C@H]1/C=C\C=C(/C)C(=O)NC2=CC(=O)C(NCCN(C)C)=C(C[C@@H](C)C[C@H](OC)[C@H](O)[C@@H](C)/C=C(\C)[C@@H]1OC(N)=O)C2=O [Alvespimycin hydrochloride]
EC50 [2, 11]: 273 nM | EC50 [4, 12]: 129 nM | CC50 [5]: 164 nM | EC50 [6, 13]: 159 nM

CN(C)c1ccc2c(c1)Sc1cc(N(C)C)ccc1N2 [Leuco methylthioninium]
CC50 ([7]; HEK293T cells): 3490 nM | EC50 ([2]; read-out: Blood stage 72h EC50): 209 nM | EC50 ([4]; read-out: Liver stage 48h EC50): 3920 nM | EC50 ([6]; read-out: Blood stage 48h EC50): 96 nM

CC(C)CCNC(=O)C(CC(C)C)NC(=O)C1OC1C(=O)O (centres unmarked) [EP-475]
CC50 [1]: > 9950 nM | EC50 [2, 9]: 313 nM | CC50 [3]: > 9990 nM | EC50 [4, 10]: > 10000 nM | EC50 [6, 15]: 267 nM

O=C(Nc1ccccc1)N[C@@H]1C(=O)N(CC23CC4CC(CC(C4)C2)C3)c2ccccc2N(c2ccccc2)C1=O [GV 150013]
CC50 ([7]; HEK293T cells): > 9950 nM | EC50 [2, 9]: 253 nM | EC50 [4, 10]: > 10000 nM

CN[C@@H]1C[C@H]2O[C@@](C)([C@@H]1OC)n1c3ccccc3c3c4c(c5c6ccccc6n2c5c31)C(=O)N[C@H]4O [UCN-01]
CC50 ([7]; HEK293T cytotoxicity): 74 nM | EC50 [2, 9]: 488 nM | EC50 [4, 10]: 2150 nM | EC50 [6, 15]: 79 nM

CCCNCC(O)COc1ccccc1C(=O)CCc1ccccc1 (centres unmarked) [Propafenone SR]
CC50 [1]: > 9950 nM | EC50 ([2]; read-out: Blood stage 72h EC50): 566 nM | CC50 [3]: > 9990 nM | EC50 ([4]; read-out: Liver stage 48h EC50): > 10000 nM | EC50 ([6]; read-out: Blood stage 48h EC50): 253 nM

COc1cccc2c1C(=O)c1c(O)c3c(c(O)c1C2=O)C[C@@](O)(C(=O)CO)C[C@@H]3O[C@H]1C[C@H](N2CCO[C@H](OC)C2)[C@H](O)[C@H](C)O1 [Nemorubicin, reference compound]
EC50 ([2]; Plasmodium falciparum, DD2, blood-stage parasites, 72 h in culture, read-out: Blood stage 72 h EC50): 9 nM | EC50 [4, 14]: 9 nM | CC50 [5]: 5 nM | EC50 ([6]; Plasmodium falciparum, DD2, blood-stage parasites, 48 h in culture, read-out: Blood stage 48 h EC50): 4 nM | CC50 at 72 h [8]: 2 nM

N[C@@H]1[C@H]2CN(c3nc4c(cc3F)c(=O)c(C(=O)O)cn4-c3ccc(F)cc3F)C[C@@H]12 [Trovafloxacin mesilate, reference compound]
EC50 [2, 11]: 669 nM | EC50 [4, 12]: > 10000 nM | CC50 [5]: > 9950 nM | EC50 ([6]; Plasmodium falciparum, DD2, read-out: EC50, antiplasmodial drug sensitivity assays in bloodstage): 9950 nM

CN(C)CCOc1ccc2[nH]c(C(=O)NCC#Cc3ccc(C(=O)NO)cc3)cc2c1 [CRA-026440]
CC50 [1]: 836 nM | EC50 [2, 9]: 63 nM | CC50 [3]: 107 nM | EC50 [4, 10]: 2490 nM | EC50 [6, 15]: 15 nM

COc1cc2nc(-c3ccc(N4CCN(C)CC4)cc3)nc(NCCN3CCOCC3)c2cc1OC [CPG-52364]
CC50 ([7]; HEK293T cells): 1640 nM | EC50 [2, 9]: 381 nM | EC50 [4, 10]: 1100 nM | EC50 [6, 15]: 100 nM

XL-888
CC50 ([7]; HEK293T cytotoxicity): 47 nM | EC50 [2, 9]: 348 nM | EC50 [4, 10]: 99 nM | EC50 [6, 15]: 201 nM
